# Reference: article PMC9673917 (ACS Infectious Diseases, 2022)
# Experiments:
# spike protein = conditions: Calu-3 cell line; cited from earlier work
# RBD-Fc/ACE2-Strep = RBD-Fc/ACE2-Strep (Severe acute respiratory syndrome coronavirus 2, UniProt P0DTC2); experiment: biochemical; format: binding, SARS-CoV-2 S protein; human ACE2
# [1] = system: Calu-3 and HEK293-ACE2 cells; conditions: Calu-3 and HEK293-ACE2 cell lines
# ACE2/RBD = conditions: read-out: IC50 as ACE2/RBD binding inhibitor, AlphaLISA; ref 16 (Hanson et al.); cited from earlier work
# ACE2/RBD interaction [2] = conditions: up to 100 μM; cell-free ELISA-type assays; RBD residues 319–541; ref 14 (Bojadzic et al.); cited from earlier work
# ACE2/RBD interaction [3] = conditions: 150 μM; RBD residues 319–541; ref 11 (Ao et al.); cited from earlier work
Compound,neutralization efficacy (spike protein),cytotoxicity over active concentration ranges [1],further results
REGN10933: monoclonal antibody that targets the spike protein,potent neutralization efficacy,–,–
CCCCCCCC/C=C\CCCCCCCC(=O)O [oleic acid],–,low to moderate cytotoxicity,IC50 (RBD-Fc/ACE2-Strep): 35.3 µM
O=C(O[C@@H]1O[C@@H]2COC(=O)c3cc(O)c(O)c(O)c3-c3c(cc(O)c(O)c3O)C(=O)O[C@H]([C@H]1O)[C@@H]2O)c1cc(O)c(O)c(O)c1 [corilagin],–,–,IC50 (ACE2/RBD): 5.5 µM
REGN10987: monoclonal antibody that targets the spike protein,potent neutralization efficacy,–,–
Cc1ccc(C(=O)Nc2ccc(S(=O)(=O)O)c3cc(S(=O)(=O)O)cc(S(=O)(=O)O)c23)cc1NC(=O)c1cccc(NC(=O)Nc2cccc(C(=O)Nc3cc(C(=O)Nc4ccc(S(=O)(=O)O)c5cc(S(=O)(=O)O)cc(S(=O)(=O)O)c45)ccc3C)c2)c1 [suramin],–,low to moderate cytotoxicity,inhibition of the ACE2/RBD interaction (ACE2/RBD interaction [2]): did not inhibit; inhibition of ACE2/RBD interaction (ACE2/RBD interaction [3]): around 50%
